Measured values reported in patent US20100310591A1 (priority 2009, published 2010).
Read-outs that look alike come from different tables or passages of the source. Non-standard residues stand in square brackets, D forms with d. Ava = NCCCCC(=O)O

Legend:
[1] = system: CD4+ T cells (CD8+ depleted PBMC of rHA-responsive donors); format: cell-based, human
[2] = system: TPc9.1 T hybridoma with CH27 antigen presenting cells; assay: T hybridoma response assay (APC + T hybridoma, HT-2 [3H]TdR uptake readout); format: cell-based, murine; conditions: for EC50: serial 1:4 dilutions from 3 μM, 24 hr stimulation
Experimental: Biological Activities of Hybrid Peptides [00103) The biological activities of the series of peptides listed in Table I were determined with the T hybridoma response assay. A T cell hybridoma which is specific to the hornworm moth cytochrome C epitope IAYLKQATAK (SEQ ID NO: 8) was stimulated with that antigenic peptide or with members of the series of hybrids of the antigenic peptide and the core Ii-Key sequence listed in Table I. The hybrids were joined with spacers of various lengths. The spacers contained either amino acids in the natural sequence of the Ii protein, or methylene (—CH2—) groups of 5-amino-n-valeric acid (ava; 5-aminopentanoic acid). Cultures of an antigen presenting cell and T cell hybridoma were incubated with serial 1:4 dilutions of the antigenic peptide, from 3 μM. Response was determined by measuring tritiated thymidine uptake by an HT-2 culture to which supernatants of the antigenic stimulation culture (24 hr stimulation period) had been transferred (see, Table 2). The endpoint for half maximal response to Hybrid 1, the antigenic peptide, was about 20 nM. The endpoint for half maximal stimulation with Hybrids 5 and 2 was about 50 pM.
For this assay the following components were added at the same time of the primary culture: (a) The hybrid peptide containing the antigenic epitope (Table I); (b) mitomycin C-treated, MHC class II-positive antigen presenting cells (APC) with the MHC class II allele required for binding of the specific antigenic peptide and its presentation to the antigenic peptide-specific T cell hybridoma; (c) MHC class II allele-restricted T cell hybridoma specific for the antigenic peptide and the MHC class II allele restricting its presentation. At the end of the incubation of this primary culture, an aliquot of its supernatant was transferred into a second culture well for incubation with an interleukin-dependent lymphoblastoid cell line. The degree of stimulation of that second indicator cell by the interleukins which had been released from the activated T cell hybridoma in the primary culture was measured by quantitating tritiated thymidine deoxyribose {[^3H]TdR} uptake into the DNA of the HT-2 indicator cells of that second culture.
The hybrids between Ii-Key core sequence LRMK (SEQ ID NO: 3) and PGCC95-104, pigeon cytochrome C 95-104, IAYLKQATAK (SEQ ID NO: 8) are presented by E^k. The peptides were dissolved in phosphate-buffered saline (PBS; 0.01 M sodium phosphate buffer, pH 7.2, 0.1 M NaCl). The solutions were sterilized by filtration. The TPc9.1 T hybridoma is specific for pigeon cytochrome C 81-104 peptide presented on the murine class II MHC allele E^k. The CH27 B cell lymphoma line which expresses H-2^k alleles was used as the antigen presenting cell.
Antigenic peptide-specific T cell activation was measured by the following procedure. Mitomycin C-treated CH27 cells (A^kE^k) APC were generated by incubating 5.×10^6 cells/mL for 20 min at 37° C. with 0.025 mg/mL of mitomycin C (Sigma) in Dulbecco's Modified Eagle's Medium (DMEM)/10 mM N-2 (hydroxyethylpiperazine-N′[2-ethanesulfonic acid] (HEPES), followed by two washes with four volumes of DMEM-5% fetal calf serum (FCS), 10 mM HEPES. T cell hybridomas were irradiated 2200 rads before each assay.
For the primary culture assay, 5×10^4 mitomycin C-treated APC, 5×10^4 T hybridoma cells and serial 1:4 dilutions from 3 uM of the peptides containing antigenic epitopes were cultured at pH 7.2-7.4, in complete DMEM-5% FCS, 10 mM HEPES, 1× nonessential amino acids (Sigma), 1 mM sodium pyruvate, 2 mM L-glutamine. 100 U/mL penicillin G, 100 μg/mL streptomycin sulfate, 5×10^−5 M 2-mercaptoethanol (2-ME). Wells containing only T hybridoma cells (T)+APC were included to monitor for background T cell activation; and wells containing T+APC+antigenic peptide were included to monitor for non-specific T hybridoma activation by each AE101 series peptide. […]

[3] = read-out: endpoint for half maximal stimulation

Row | Substance | in vitro CD4 response, fold above background [1] [fold above background] | recognition frequency among donors [1] [%] | activity of hybrid (in words) [2] | immunological response to the antigenic epitope (T cell proliferative response) ([2]; Conc. 0.01 nM) | immunological response to the antigenic epitope (T cell proliferative response) ([2]; Conc. 0.05 nM) | immunological response to the antigenic epitope (T cell proliferative response) ([2]; Conc. 0.18 nM) | immunological response to the antigenic epitope (T cell proliferative response) ([2]; Conc. 0.73 nM) | immunological response to the antigenic epitope (T cell proliferative response) ([2]; Conc. 3 nM) | immunological response to the antigenic epitope (T cell proliferative response) ([2]; Conc. 12 nM) | immunological response to the antigenic epitope (T cell proliferative response) ([2]; Conc. 47 nM) | immunological response to the antigenic epitope (T cell proliferative response) ([2]; Conc. 188 nM) | immunological response to the antigenic epitope (T cell proliferative response) ([2]; Conc. 750 nM) | immunological response to the antigenic epitope (T cell proliferative response) ([2]; Conc. 3000 nM) | EC50 [2, 3] [nM] | EC50 ([2]; read-out: endpoint for half maximal response) [nM]
1 | PLILRDCSVAGWLLGNP [BEI 12] | 3.3 |  |  |  |  |  |  |  |  |  |  |  |  |  | 
2 | YQNPTTYISVGTSTLNQ [BEI 36] |  | 21 |  |  |  |  |  |  |  |  |  |  |  |  | 
3 | VTHAQDILEKTHNGKL [BEI 8] | 3.4 |  |  |  |  |  |  |  |  |  |  |  |  |  | 
4 | Ac-LRMK (SEQ ID NO: 3)-5-aminopentanoyl-5-aminopentanoyl-IAYLKQATAK (SEQ ID NO: 8)-NH2 (Ac-LRMK[Ava][Ava]IAYLKQATAK-NH2; SMILES CC[C@H](C)[C@H](NC(=O)CCCCNC(=O)CCCCNC(=O)[C@H](CCCCN)NC(=O)[C@H](CCSC)NC(=O)[C@H](CCCNC(=N)N)NC(=O)[C@H](CC(C)C)NC(C)=O)C(=O)N[C@@H](C)C(=O)N[C@@H](Cc1ccc(O)cc1)C(=O)N[C@@H](CC(C)C)C(=O)N[C@@H](CCCCN)C(=O)N[C@@H](CCC(N)=O)C(=O)N[C@@H](C)C(=O)N[C@H](C(=O)N[C@@H](C)C(=O)N[C@@H](CCCCN)C(N)=O)[C@@H](C)O) [Hybrid 3] |  |  | comparable to those with the natural sequence of Ii protein | 0.6 thousands of counts per minute | 5.3 thousands of counts per minute | 21.6 thousands of counts per minute | 22.3 thousands of counts per minute | 27.9 thousands of counts per minute | 29.5 thousands of counts per minute | 26.2 thousands of counts per minute | 26.2 thousands of counts per minute | 31.7 thousands of counts per minute | 31.9 thousands of counts per minute |  | 
5 | KRGLFGAIAGFIEGGWQ [BEI 59] |  | 21 |  |  |  |  |  |  |  |  |  |  |  |  | 
6 | Ac-LRMKLPKSAKPVSKIAYLKQATAK-NH2 (SEQ ID NO: 11) [Hybrid 6] |  |  | sub-optimal activity | 2.9 thousands of counts per minute | 2.4 thousands of counts per minute | 11.9 thousands of counts per minute | 28.7 thousands of counts per minute | 31.4 thousands of counts per minute | 39.2 thousands of counts per minute | 25.3 thousands of counts per minute | 26.9 thousands of counts per minute | 23.4 thousands of counts per minute | 21.5 thousands of counts per minute |  | 
7 | STLNQRLVPRIATRSKV [BEI 38] | 13 |  |  |  |  |  |  |  |  |  |  |  |  |  | 
8 | LRMKLPKSAKPIAYLKQATAK [Hybrid 5] |  |  |  | 14.3 thousands of counts per minute | 21.3 thousands of counts per minute | 36.7 thousands of counts per minute | 30.1 thousands of counts per minute | 31.4 thousands of counts per minute | 44.6 thousands of counts per minute | 26.2 thousands of counts per minute | 29.1 thousands of counts per minute | 27.5 thousands of counts per minute | 27.3 thousands of counts per minute | ~0.05 | 
9 | Ac-LRMK (SEQ ID NO: 3)-5-aminopentanoyl-IAYLKQATAK (SEQ ID NO: 8)-NH2 (Ac-LRMK[Ava]IAYLKQATAK-NH2; SMILES CC[C@H](C)[C@H](NC(=O)CCCCNC(=O)[C@H](CCCCN)NC(=O)[C@H](CCSC)NC(=O)[C@H](CCCNC(=N)N)NC(=O)[C@H](CC(C)C)NC(C)=O)C(=O)N[C@@H](C)C(=O)N[C@@H](Cc1ccc(O)cc1)C(=O)N[C@@H](CC(C)C)C(=O)N[C@@H](CCCCN)C(=O)N[C@@H](CCC(N)=O)C(=O)N[C@@H](C)C(=O)N[C@H](C(=O)N[C@@H](C)C(=O)N[C@@H](CCCCN)C(N)=O)[C@@H](C)O) [Hybrid 2] |  |  | comparable to those with the natural sequence of Ii protein | 3.4 thousands of counts per minute | 19.8 thousands of counts per minute | 31.2 thousands of counts per minute | 38.8 thousands of counts per minute | 30.1 thousands of counts per minute | 21.9 thousands of counts per minute | 20.8 thousands of counts per minute | 27.2 thousands of counts per minute | 23.9 thousands of counts per minute | 25.1 thousands of counts per minute | ~0.05 | 
10 | IAYLKQATAK [Hybrid 1, Ac-IAYLKQATAK—NH2 (SEQ ID NO: 8), reference compound] |  |  |  | 0 thousands of counts per minute | 0 thousands of counts per minute | 0 thousands of counts per minute | 4 thousands of counts per minute | 0.4 thousands of counts per minute | 10.9 thousands of counts per minute | 29.5 thousands of counts per minute | 32.4 thousands of counts per minute | 27.8 thousands of counts per minute | 25.2 thousands of counts per minute |  | ~20
11 | Ac-LRMKLPKSIAYLKQATAK-NH2 (SEQ ID NO: 9) [Hybrid 4] |  |  |  | 2.5 thousands of counts per minute | 5.8 thousands of counts per minute | 9.1 thousands of counts per minute | 19.2 thousands of counts per minute | 19.0 thousands of counts per minute | 23.1 thousands of counts per minute | 19.5 thousands of counts per minute | 20.8 thousands of counts per minute | 23.3 thousands of counts per minute | 25.2 thousands of counts per minute |  | 
